Laboratory results published in patent US5591758A, “Organic nitrates, processes for their preparation and their use in the treatment of cardiovascular diseases” (Laboratoires Hoechst, SA, priority 1991, dated 1997).
Where a name gives a salt, the structure may show the parent alone.

What was measured:
anesthetised dogs = test: Haemodynamic effects on anesthetised dogs; assay type: in vivo, dogs (labrador/harrier cross)
Procedure: Haemodynamic effects of the compounds according to the invention on anesthetised pigs or dogs
The dogs, weighing between 16 and 26 kg, are the progeny of a labrador/harrier cross.
In the case of dogs the anesthesia is induced by sodium pentobarbitol (45 mg/jg i.v.) and maintained with an i.v. perfusion (flow rate of 8 mg/kg/h).
The pigs or dogs are placed under artificial respiration in ambient air. Analysis of the blood gases (pO2, pCO2) is carried out at regular intervals and oxygen can be supplied via the respirator, if necessary.
The haemodynamic parameters recorded include the left ventricular pressure (LVP; Millar PC350 Tip catheter inserted via the carotid artery), systemic blood pressure (BPs, BPd; full catheter in a femoral artery), the end pressure of the left ventricular diastole (LVEDP), the ventricular contractility (LVPdp/dtmax) and the heart rate (HR).
Following an equilibration period of the order of 45 minutes, the compounds studied are administered intraduodenally (i.d.) or intraveinously (i.v.) to several animals (1 to 4). The haemodynamic variables are recorded continuously for 1 to 3 hours, as a function of the period of action of the compound.
The effects of the compounds studied are shown as the absolute difference with respect to the base value (bv) measured before administration of the compounds and are shown in Table VII (a,b,c).
An antianginal activity is estimated by a fall in the BPs and the LVEDP (fall in venous return).

thoracic aorta = test: Vasorelaxant effect on isolated vessels (rat thoracic aorta rings without endothelium, precontracted with noradrenalin); parameters: species or system Wistar rats; conditions: for Emax: Rattus norvegicus, maximum inhibition of noradrenalin effect, 10^-8 to 10^-4 M substance, read-out: Maximum Relaxation; for IC50: rat aorta, 10^-7 M noradrenalin contraction
Procedure: Vasorelaxant effect of the compounds according to the invention on isolated vessels.
Adult Wistar rats weighing between 250 and 350 g are anaesthetised by intraperitoneal injection of sodium pentobarbital (30 mg/kg). The thoracic aorta is rapidly removed and placed in a refrigerated and oxygenated solution of bicarbonate buffer of the Krebs-Ringer type (composition [mM]: NaCl, 118; KCl, 4.7; CaCl2, 2.5; MgSO4, 1.2; KH2 PO4, 1.2; NaHCO3, 25.0; disodium calcium salt of EDTA, 0.026; glucose 11.1). The aorta is dissected with the aim of removing the connective tissue and then cut into 6 rings (length 5-10 mm). The endothelium is removed by moderate abrasion of the intimal surface of the aortic segments with the aid of a pair of tweezers. These segments are then placed between two hooks in an isolated organ cell filled with 25 ml of bicarbonate buffer (pH 7.4), thermostat-controlled at 37° C. and oxygenated with the aid of a 95% O2 /5% CO2 mixture (pH 7.4). One of the hooks is fixed to a fixed point, while the second is connected to a transducer with the aim of measuring the variations in isometric voltage (expressed in grams). After an equilibration period of 30 min., the segments are progressively withdrawn so as to attain the level of base voltage for which the contractor response to noradrenalin (10^-7 M) is maximum (optimum voltage; average 2 g). The absence of endothelium is verified by addition of a single concentration of acetylcholine (10^-6 M), after precontraction of the vessels by noradrenalin (10^-7 M). The integrity of the vascular smooth muscle is also verified by adding a single concentration of a vasodilator whose response is independent of the presence of the endothelium, SIN-1 (10^-5 M). After this initial procedure, the aortas are washed, equilibrated for a period of 30 min and then recontracted (10^-7 M noradrenalin). The relaxant effect of the substance to be tested is then evaluated by adding increasing concentrations of this substance (from 10^-8 to 10^-4 M). The maximum inhibition of the concentration caused by noradrenalin (expressed as a percentage) is then calculated ("maximum relaxation"). When this maximum relaxation is greater than 50%, the concentration of substance tested producing a 50% inhibition of the maximum contraction (IC50) is calculated. Table V below collates the IC50 and the maximum relaxation percentages for the various compounds tested.

Compound	BPs (min), period of action (anesthetised dogs; dogs, 3 mg/kg i.d.) [min]	BPs, difference to base value (anesthetised dogs; dogs, 3 mg/kg i.d.) [mmHg]	LVEDP (min), period of action (anesthetised dogs; dogs, 3 mg/kg i.d.) [min]	LVEDP, difference to base value (anesthetised dogs; dogs, 3 mg/kg i.d.)	Emax (thoracic aorta) [%]	IC50 (thoracic aorta) [µM]	BPs (min), period of action (anesthetised dogs; dogs, 10 mg/kg i.v.) [min]	BPs, difference to base value (anesthetised dogs; dogs, 10 mg/kg i.v.) [mmHg]	LVEDP (min), period of action (anesthetised dogs; dogs, 10 mg/kg i.v.) [min]	LVEDP, difference to base value (anesthetised dogs; dogs, 10 mg/kg i.v.)	BPs (min), period of action (anesthetised dogs; dogs, 3 mg/kg i.v.) [min]	BPs, difference to base value (anesthetised dogs; dogs, 3 mg/kg i.v.) [mmHg]	LVEDP (min), period of action (anesthetised dogs; dogs, 3 mg/kg i.v.) [min]	LVEDP, difference to base value (anesthetised dogs; dogs, 3 mg/kg i.v.)	BPs (min), period of action (anesthetised dogs; dogs, 1,1 mg/kg i.d.) [min]	BPs, difference to base value (anesthetised dogs; dogs, 1,1 mg/kg i.d.) [mmHg]
C[C@H](NC(=O)[C@@H]1CSCN1C(=O)OC(C)(C)C)C(=O)N[C@H]1CO[C@H]2[C@@H]1OC[C@@H]2O[N+](=O)[O-] [Compound 61, 5-[[2-[[(3-t-butoxycarbonyl-4-n-thiazolidinyl)carbonyl]amino]-1-((2S)-2-methyl)-oxoethyl]amino]-5-deoxy-2-O-nitro-1,4:3,6-dianhydro-L-iditol]	> 180	-25	> 180	-1,5 mmHg	100	32										
C[C@H](NC(=O)[C@@H]1CSCN1)C(=O)N[C@H]1CO[C@H]2[C@@H]1OC[C@@H]2O[N+](=O)[O-] [Compound 62, 5-[[2-[[(4-L-thiazolidinyl)carbonyl]amino]-1-((2S)-2-methyl)-oxoethyl]amino]-5-deoxy-2-O-nitro-1,4:3,6-dianhydro-L-iditol monohydrochloride]	> 30	-35			72	55										
CSCC[C@H](NC(=O)OC(C)(C)C)C(=O)N[C@H]1CO[C@H]2[C@@H]1OC[C@@H]2O[N+](=O)[O-] [Compound 37, N-[(t-Butoxy)carbonyl]-L-methionine amide of 5-amino-5-deoxy-2-O-nitro-1,4:3,6-dianhydro-L-iditol]					100	13	> 90	-25	30	-2,0 mmHg						
CC(C)(C)OC(=O)N1CSC[C@H]1C(=O)NCC(=O)O[C@H]1CO[C@H]2[C@@H]1OC[C@H]2O[N+](=O)[O-] [Compound 72, 2-O-[2-[[(3-t-butoxycarbonyl-4-L-thiazolidinyl)carbonyl]amino]-1-oxoethyl]-5-O-nitro-1,4:3,6-dianhydro-D-glucitol]					67	64	0	0	0	0,0 mmHg						
C[C@H](NC(=O)OC(C)(C)C)C(=O)N[C@H]1CO[C@H]2[C@@H]1OC[C@@H]2O[N+](=O)[O-] [Compound 7, N-[(t-Butoxy)carbonyl]-L-alanine amide of 5-amino-5-deoxy-2-O-nitro-1,4:3,6-dianhydro-L-iditol]					96	17					> 90	-20	> 90	-2,0 mmHg		
CC(C)(C)OC(=O)N[C@@H](Cc1ccccc1)C(=O)N[C@H]1CO[C@H]2[C@@H]1OC[C@@H]2O[N+](=O)[O-] [Compound 11, N-[(t-Butoxy)carbonyl]-L-phenylalanine amide of 5-amino-5-deoxy-2-O-nitro-1,4:3,6-dianhydro-L-iditol]					100	25					> 30	-10	0	0,0 mmHg		
CC(C)(C)OC(=O)N1CSC[C@H]1C(=O)N1CCC[C@H]1C(=O)N[C@H]1CO[C@H]2[C@@H]1OC[C@@H]2O[N+](=O)[O-] [Compound 69, 5-[[[(2S)-N-[(3-t-butoxycarbonyl-4-L-thiazolidinyl)carbonyl]-2-pyrrolidinyl]carbonyl]amino]-5-deoxy-2-O-nitro-1,4:3,6-dianhydro-L-iditol]	> 150	-40	> 150	-2,5 mmHg	87	42										
CC(C)(C)OC(=O)N[C@@H](CSSc1ccccc1[N+](=O)[O-])C(=O)N[C@H]1CO[C@H]2[C@@H]1OC[C@@H]2O[N+](=O)[O-] [Compound 35, S-[(2-Nitrophenyl)thio]-N-[(t-butoxy)carbonyl]-L-cysteine amide of 5-amino-5-deoxy-2-O-nitro-1,4:3,6-dianhydro-L-iditol]					46	100					> 30	-10	0	0,0 mmHg		
CC(C)(C)OC(=O)N1CSC[C@H]1C(=O)N1CSC[C@H]1C(=O)N[C@H]1CO[C@H]2[C@@H]1OC[C@@H]2O[N+](=O)[O-] [Compound 77, 5-[[[(4R)-N-[(3-t-butoxycarbonyl-4-L-thiazolidinyl)carbonyl]-4-thiazolidinyl]carbonyl]amino]-5-deoxy-2-O-nitro-1,4:3,6-dianhydro-L-iditol]	> 180	-35	> 180	-2,0 mmHg	97	40										
CC(C)(C)OC(=O)N1CSC[C@H]1C(=O)O[C@H]1CO[C@H]2[C@@H]1OC[C@H]2O[N+](=O)[O-] [Compound 18, 2-O-[(3-t-Butoxycarbonyl-4-L-thiazolidinyl)carbonyl]-5-O-nitro-1,4:3,6-dianhydro-D-glucitol]					75	72	> 30	-10	> 30	3,0 mmHg						
O=C(CNC(=O)[C@@H]1CCCN1)N[C@H]1CO[C@H]2[C@@H]1OC[C@@H]2O[N+](=O)[O-] [Compound 49, 5-[[2-[[((2S)-2-pyrrolidinyl)carbonyl]amino]-1-oxoethyl]amino]-5-deoxy-2-O-nitro-1,4:3,6-dianhydro-L-iditol monohydrochloride]					100	38									> 240	-32
CC(C)(C)OC(=O)NCC(=O)N[C@H]1CO[C@H]2[C@@H]1OC[C@H]2O[N+](=O)[O-] [Compound 15, N-[(t-Butoxy)carbonyl]glycine amide of 2-amino-2-deoxy-5-O-nitro-1,4:3,6-dianhydro-D-glucitol]	> 180	-20	> 180	-3,0 mmHg	58	60										
